We go through 29 compounds from US6110962A, “11-aryl-benzo[B]naphtho[2,3-D]furans and 11-aryl-benzo[B]naphtho[2,3-D]thiophenes useful in the treatment of insulin resistance and hyperglycemia” (American Home Products Corporation, priority 1999, dated 2000).

Structures can show the parent of a compound that is named as a salt.

A word on the IC50: it is the concentration at which inhibition is half-maximal.

Assay [1] has as its target T1, Human recombinant PTP1B (Homo sapiens, UniProt P18031).
T1 construct: made in house
T1 sequence (P18031 1-435): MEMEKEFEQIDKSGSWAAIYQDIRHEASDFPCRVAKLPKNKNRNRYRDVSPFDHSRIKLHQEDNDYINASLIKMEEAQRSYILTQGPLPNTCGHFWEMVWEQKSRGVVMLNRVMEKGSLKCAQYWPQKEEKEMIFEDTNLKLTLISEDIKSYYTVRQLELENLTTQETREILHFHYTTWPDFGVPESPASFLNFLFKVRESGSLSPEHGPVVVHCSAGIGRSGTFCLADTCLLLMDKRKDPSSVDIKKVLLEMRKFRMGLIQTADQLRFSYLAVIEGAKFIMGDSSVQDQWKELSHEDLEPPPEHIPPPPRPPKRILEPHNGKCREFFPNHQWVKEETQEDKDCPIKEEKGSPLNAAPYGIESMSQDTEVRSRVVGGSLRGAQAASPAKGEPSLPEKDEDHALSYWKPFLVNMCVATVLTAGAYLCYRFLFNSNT
The class given is biochemical. The following applies: read-out: IC50.

The test system of assay [2] is rat hepatic microsomal PTPases. As to conditions: PTPase activity, compound at 50 μM.

As for `Brc1cc(-c2c3ccccc3c(Br)c3sc4ccccc4c23)cc(Br)c1OCc1nnn[nH]1` [Example 171, 5-[2,6-Dibromo-4-(6-bromo-benzo[b]naphtho[2,3-d]thiophen-11-yl)-phenoxymethyl]-1 H-tetrazole], the IC50 in assay [1] is 302 nM. For the same compound, in assay [2], the “% Change from Control” value was -71.04%.
Regarding `COc1c(Br)cc(-c2c3ccccc3c(Br)c3sc4ccccc4c23)cc1O[C@H](Cc1ccccc1)C(=O)O` [Example 196, (R)-2-[3-Bromo-5-(6-bromo-benzo[b]naphtho[2,3-d]thiophen-11-yl)-2-methoxy-phenoxy]-3-phenyl-propionic acid], the IC50 in assay [1] turned out to be 174 nM. Besides, in assay [2], the “% Change from Control” value is recorded as -80.08%.
The corresponding values for `CC(C)c1cc(-c2c3ccccc3c(Br)c3sc4ccccc4c23)cc(C(C)C)c1O` [Example 40, 4-(6-Bromo-benzo[b]naphtho[2,3-d]thiophen-11-yl)-2,6-diisopropyl-phenol] are 1100 nM and -1.40%.
The corresponding values for `CN(C)CCSc1c2ccccc2c(-c2cc(Br)c(O[C@H](Cc3ccccc3)C(=O)O)c(Br)c2)c2c1sc1ccccc12` [Example 133, (R)-2-{2,6-Dibromo-4-[6-(2-dimethylamino-ethylsulfanyl)-benzo[b]naphtho[2,3-d]thiophen-11-yl]-phenoxy}-3-phenyl-propionic acid] are 506 nM and -27.89%.
The corresponding values for `Oc1cc(Br)c(-c2c3ccccc3c(Br)c3sc4ccccc4c23)cc1O` [Example 71, 4-Bromo-5-(6-bromo-benzo[b]naphtho[2,3-d]thiophen-11-yl)-benzene-1,2-diol] are 79 nM and -35.74%.
Regarding `O=C(O)[C@H](Cc1ccccc1)Oc1ccc(-c2c3ccccc3c(Br)c3sc4ccccc4c23)cc1` [Example 114, (S)-2-[4-(6-bromo-benzo[b]naphtho[2,3-d]thiophen-11-yl)-phenoxy]-3-phenyl-propionic acid], in assay [1], the IC50 was 589 nM. The “% Change from Control” value in assay [2] is recorded as -68.03%.
Turning to `C[C@H](Oc1cc(-c2c3ccccc3c(Br)c3sc4ccccc4c23)ccc1Br)C(=O)O` [Example 143, (S)-2-[2-Bromo-5-(6-bromo-benzo[b]naphtho[2,3-d]thiophen-11-yl)-phenoxyl]-propionic acid], in assay [1], the IC50 was determined as 1170 nM. Also, the “% Change from Control” value in assay [2] is -76.98%.
The corresponding values for `O=C(O)[C@@H](Cc1ccccc1)Oc1c(Br)cc(-c2c3ccccc3c(Sc3ccncc3)c3sc4ccccc4c23)cc1Br` [Example 134, (R)-2-{2,6-Dibromo-4-[6-(pyridin-4-ylsulfanyl)-benzo[b]naphtho[2,3-d]thiophen-11-yl]-phenoxy}-3-phenyl-propionic acid] are 93 nM and -69.86%.
The corresponding values for `O=C(O)COc1cc(-c2c3ccccc3c(Br)c3sc4ccccc4c23)c(Br)cc1Br` [Example 92, [2,4-Dibromo-5-(6-bromo-benzo[b]naphtho[2.3-d]thiophen-1-yl)-phenoxyl]-acetic acid] are 644 nM and -98.16%.
Turning to `O=C(O)[C@@H](Cc1ccccc1)Oc1c(Br)cc(-c2c3ccccc3c(OCc3ccccc3)c3sc4ccccc4c23)cc1Br` [Example 184, (R)-2-[4-(6-Benzyloxy-benzo[b]naphtho[2,3-d]thiophen-11-yl]-2-6-dibromo-phenoxy}-3-phenyl-propionic acid], the IC50 in assay [1] turned out to be 45 nM. The “% Change from Control” value in assay [2] is on record as -46.44%.
Turning to `N#Cc1cc(-c2c3ccccc3cc3sc4ccccc4c23)cc(C#N)c1OCC(=O)O` [Example 81, [(4-Benzo[b]naphtho[2,3-d]thiophen-11-yl)-2,6-dicyano-phenoxy]-acetic acid], the IC50 in assay [1] is 1990 nM. The “% Change from Control” value in assay [2] is given as -47.69%.
In the case of `Oc1c(Br)cc(-c2c3ccccc3c(Sc3ccccc3)c3sc4ccccc4c23)cc1Br` [Example 64, 2,6-Dibromo-4-(6-phenylsulfanyl-benzo[b]naphtho[2,3-d]thiophen-11-yl)-pheno], the IC50 in assay [1] came to 347 nM. Further, the “% Change from Control” value in assay [2] is on record as -15.90%.
As to `N#Cc1c2ccccc2c(-c2cc(Br)c(O)c(Br)c2)c2c1sc1ccccc12` [Example 58, 11-(3,5-Dibromo-4-hydroxy-phenyl)-benzo[b]naphtho[2,3-d]thiophene-6-carbonitrile], in assay [1], the IC50 is 1010 nM. In addition, the “% Change from Control” value in assay [2] is -43.32%.
Turning to `Oc1c(-c2ccccc2)cc(-c2c3ccccc3cc3sc4ccccc4c23)cc1-c1ccccc1` [Example 190, 5'-Benzo[b]naphtho[2,3-d]thiophen-11-yl-[1,1':3', 1.increment.]terphenyl-2'-ol], the IC50 in assay [1] was 2000 nM.
Turning to `Oc1cccc(-c2c3ccccc3c(Br)c3sc4ccccc4c23)c1` [Example 42, 3-(6-Bromo-benzo[b]naphtho[2,3-d]thiophen-11-yl)-phenol], the half-inhibitory concentration (IC50) in assay [1] was 1500 nM. Moreover, in assay [2], the “% Change from Control” value is -21.28%.
`N#C[C@@H](Cc1ccccc1)Oc1c(Br)cc(-c2c3ccccc3c(Br)c3sc4ccccc4c23)cc1Br` [Example 170, (R)-2-[2,6-Dibromo-4-(6-bromo-benzo[b]naphtho[2,3-d]thiophen-11-yl)-phenoxy]-3-phenyl-propionitrile]: in assay [1], the IC50 was determined as 607 nM. Besides, the “% Change from Control” value in assay [2] was -18.79%.
For `COc1c(O)cc(-c2c3ccccc3c(Br)c3sc4ccccc4c23)cc1Br` [Example 195, 3-Bromo-5-(6-bromo-benzo[b]naphtho[2,3-d]thiophen-11-yl)-2-methoxy-phenol], the IC50 in assay [1] was 889 nM. In addition, the “% Change from Control” value in assay [2] is -29.34%.
On the same counts, the results for `Cc1c2ccccc2c(-c2cc(Br)c(O)c(Br)c2)c2c1sc1ccccc12` [Example 62, 2,6-Dibromo-4-(6-methyl-benzo[b]naphtho[2,3-d]thiophen-11-yl)-phenol] are 654 nM and -40.14%.
On to `O=C(O)[C@@H](Cc1c[nH]cn1)Oc1c(Br)cc(-c2c3ccccc3c(Br)c3sc4ccccc4c23)cc1Br` [Example 120, (R)-2-[2,6-Dibromo-4-(6-bromo-benzo[b]naphtho[2,3-d]thiophen-11-yl)-phenoxy]-3-(1 H-imidazol-4-yl)-propionic acid, hydrochloride], for which the IC50 in assay [1] came to 541 nM. In addition, the “% Change from Control” value in assay [2] is on record as -17.35%.
The corresponding values for `Oc1ccc(-c2c3ccccc3c(Br)c3sc4ccccc4c23)cc1O` [Example 43, 4-(6-bromo-benzo[b]naphtho[2,3-d]thiophen-11-yl)-benzene-1,2-diol] are 189 nM and -14.62%.
`O=C(O)[C@@H](CCN1Cc2ccccc2C1=O)Oc1c(Br)cc(-c2c3ccccc3c(Br)c3sc4ccccc4c23)cc1Br` [Example 124, (2R)-2-[2,6-Dibromo-4-(6-bromo-benzo[b]naphtho[2,3-d]thiophen-11-yl)-phenoxy]-4-(1-oxo-1,3-dihydro-isoindol-2-yl)-butyric acid]: the IC50 in assay [1] stood at 85 nM. Moreover, the “% Change from Control” value in assay [2] is -70.01%.
On the same counts, the results for `Oc1ccc(-c2c3ccccc3c(Br)c3sc4ccccc4c23)cc1` [Example 41, 4-(6-Bromo-benzo[b]naphtho[2,3-d]thiophen-11-yl)-phenol] are 1080 nM and -39.32%.
For the compound `O=C(O)C(Cc1ccc2ccccc2c1)Oc1c(Br)cc(-c2c3ccccc3c(Br)c3sc4ccccc4c23)cc1Br` (stereo not drawn) [Example 156, 2-[2,6-Dibromo-4-(6-bromo-benzo[b]naphtho[2,3-d]thiophen-11-yl)-phenoxy]-3-naphthalen-2yl-propionic acid], the IC50 in assay [1] was 26 nM. Moreover, the “% Change from Control” value in assay [2] is on record as -71.12%.
The corresponding values for `Oc1c(Br)cc(-c2c3ccccc3c(Cl)c3sc4ccccc4c23)cc1Br` [Example 60, 2,6-Dibromo-4-(6-chloro-benzo[b]naphtho[2,3-d]thiophen-11-yl)-phenol] are 129 nM and -25.07%.
In the case of `O=C(O)C[C@@H](Oc1c(Br)cc(-c2c3ccccc3c(Br)c3sc4ccccc4c23)cc1Br)C(=O)O` [Example 152, (R)-2-[2,6-Dibromo-4-(6-bromo-benzo[b]naphtho[2,3-d]thiophen-11-yl)-phenoxy]-succinic acid], the IC50 in assay [1] is 994 nM. The “% Change from Control” value in assay [2] is -95.22%.
The corresponding values for `O=C(O)COc1cc(-c2c3ccccc3c(Br)c3sc4ccccc4c23)ccc1Br` [Example 91, [2-Bromo-5-(6-bromo-benzo[b]naphtho[2,3-d]thiophen-11-yl)-phenoxyl]-acetic acid] are 1300 nM and -97.10%.
The corresponding values for `C[C@@H](Oc1cc(-c2c3ccccc3c(Br)c3sc4ccccc4c23)ccc1Br)C(=O)O` [Example 144, (R)-2-[2-bromo-5-(6-Bromo-benzo[b]naphtho[2,3-d]thiophen-11-yl)-phenoxyl]-propionic acid] are 1130 nM and -85.24%.
With `N#Cc1c2ccccc2c(-c2ccc(O[C@H](Cc3ccccc3)C(=O)O)cc2)c2c1sc1ccccc12` [Example 116, (R)-2-[4-(6-Cyano-benzo[b]naphtho[2,3-d]thiophen-11-yl)-phenoxy]-3-phenyl-propionic acid], in assay [1], the IC50 came to 765 nM. Besides, the “% Change from Control” value in assay [2] is listed as -61.89%.
On the same counts, the results for `O=C(O)[C@@H](CCN1C(=O)c2ccccc2C1=O)Oc1ccc(-c2c3ccccc3cc3sc4ccccc4c23)cc1` [Example 148] are 1230 nM and -82.62%.
